# A melting point compilation (Tetko et al.; mined from patent text by program, amines drawn as free bases though some values may be those of a salt)
row,melting point [°C],Compound
1,218 to 220,NC(=O)Cc1nc2ccnc(-c3cccc(C(F)(F)F)c3)n2n1
2,163 to 164,Nc1cc(-c2ccco2)ccc1Nc1cccc(-n2cccc2)c1
3,194 to 195,OC1c2ccc(OCc3ccccc3)cc2OCC1N1CCC(O)(c2ccc(F)cc2)CC1 (centres undefined)
4,188 to 191,CCc1c(C)sc2nc(C(C)C)c(CO)c(-c3ccc(F)cc3)c12
5,71 to 72.5,N#Cc1cc(F)c(F)c(Br)c1Cl
6,115,O=C1C=CC(=O)C(CC(Cl)(Cl)Cl)=C1
7,118 to 120,CC(C)(C)C(C)(O)C(CCOc1ccccc1)n1cncn1 (centres undefined)
8,127,N#Cc1ccc(Oc2ccccc2[N+](=O)[O-])cc1C#N
9,132 to 137,NCC1CCCN(c2ncc3ncnc(Nc4ccc(F)c(Cl)c4)c3n2)C1 (centres undefined)
10,208 to 210,COC(=O)c1ccc2cc(-c3ccccc3)[nH]c2c1
11,285,Cc1cc(-c2ccc(C(F)(F)F)cc2)cn2c(-c3cc(-c4ncon4)c(S(N)(=O)=O)s3)cnc12
12,148 to 150,COc1nc(NC(=S)NS(=O)(=O)c2ccccc2)nc(OC)n1
13,135 to 137,N#Cc1ccccc1NC(=O)C1CCCCC1
14,264,Cc1cc(C#N)c(C)c(C(=O)Nc2ccc(Cl)cn2)n1
15,156 to 157,Cc1nc([C@H](Cc2ccccn2)N(C=O)c2cc3ccccc3[nH]2)n(C)c1-c1ccc(-n2ccnc2)cc1
16,> 200,O=C1CNc2ncc(I)cc2N1Cc1cc(Cl)ccc1Cl
17,> 300,Cc1nnc(-c2ccc3occ(-c4ccc(C(=O)O)cc4)c3c2)o1
18,86 to 88,COc1ccc(SCc2ccc(F)cc2F)c(Cl)c1Cl
19,74 to 76,CCCCC[C@@H](COc1ccc(C(=O)O)cc1)c1ccc2c(c1)C(C)(C)CCC2(C)C
20,156 to 157,NC(=O)CNC(=O)c1cccc(-c2cccc3oc(Cc4cc(F)cc(Cl)c4)cc23)c1
21,60 to 61,CCNC(=O)[C@@H]1C[C@H](SCc2ccc(OC)cc2)CN1CC
22,98 to 99,O=C(Nc1ccccc1)OCCc1ccc2c(c1)C(=O)c1ccccc1CO2
23,51 to 52,N#CC1(N)CCSCC1
24,251 to 253,COc1cc2c(Nc3ccc(Sc4nccn4C)c(Cl)c3)c(C#N)cnc2cc1N1CCN(CCn2ccnc2)CC1
25,259 to 262,Cc1cccc(Cc2ccc(-c3cnn4c(O)ncnc34)cc2C)c1

row,melting point [°C],Compound
1,279 to 280,Fc1ccc(-c2nc3ccc(N4CCC5(CCCNC5)CC4)nn3c2-c2ccnc3[nH]ccc23)cc1
2,181 to 182,NC(=O)N(O)CCNC(=O)c1cc2ccccc2o1
3,206 to 208,CCn1c(C)c(C2(c3c(-c4ccccc4)c(-c4ccccc4)c4ccccn34)OC(=O)c3cccnc32)c2ccccc21 (centres undefined)
4,240 to 243,CC(=O)NC1CCC2=C(CC1)C(=O)C(=CC(=O)O)C=C2 (centres undefined)
5,62,CCC1(COC(=O)c2cccc3ccccc23)COC1
6,86.5 to 88,CCOC(=O)C=Cc1cnc2ccccc2c1
7,284 to 287,O=C(O)c1ccnc(-c2ccc(Cl)c(C(=O)NCC34CC5CC(CC(C5)C3)C4)c2)c1
8,118 to 120,Cc1cc(O)ccc1-n1cc(C(=O)O)c(=O)cc1C1CCCCCCC1
9,116 to 118,CCOC(=O)c1c(NCc2ccc(OC)c(Cl)c2)ccnc1Cl
10,229 to 230,O=C1NC(=O)C(c2c[nH]c3ccccc23)N1 (centres undefined)
11,242 to 250,NS(=O)(=O)c1ccc(-c2c(-c3cccc(F)c3)noc2CC(=O)O)cc1
12,204 to 206,CC(C)(C)c1cc(NC=O)n[nH]1
13,150,CSc1c(C(=O)O)ccc(Cl)c1F
14,210 to 212,Cc1ccnc(-c2ccccc2)c1C(=O)O
15,70 to 72,CC(C)C(OCc1ccccc1)[C@H]1[C@H]([N+](=O)[O-])[C@@H](c2ccco2)N[C@@H]1C(=O)NCCC(=O)O (some centres undefined)
16,45 to 49,CC#Cc1ncccc1C(=O)c1ccccc1Cl
17,143 to 144,CCCc1c(OCCCS(=O)(=O)c2ccc(C(=O)CCC#N)cc2)ccc(C(C)=O)c1O
18,52 to 54,COc1ccc(C=O)c(F)c1OC
19,260 to 262,CCCCc1ncc(Sc2ccccc2C(=O)O)n1Cc1ccc(C(=O)O)cc1
20,180 to 181,Nc1nc(-c2cccc3ccccc23)cc2ccc(Cl)cc12
21,65,CCN(CC)c1ccc(-c2nc(-c3cc(OC)c(O)c(OC)c3)n(C(=O)NS(=O)(=O)c3ccc(C)cc3)c2-c2ccc(N(CC)CC)cc2)cc1
22,112 to 114,COc1c(-c2ccc(S(C)(=O)=O)cc2)cnn(-c2cccc(Cl)c2)c1=O
23,123 to 125,CO/N=C1\CCCC[C@@H]1NC(=O)c1cc(-c2ccc(Cl)cc2)c(O[C@@H](C)C(F)(F)F)cn1
24,147 to 150,O=C(O)Cc1cc(C(=O)c2ccc(Br)cc2)sc1-c1ccccc1
25,181 to 182,CC(Oc1ccc(-n2cnc3cc(C(F)(F)F)ccc32)cc1)C(=O)O (centres undefined)

row,melting point [°C],Compound
1,173 to 174,CC(=O)Nc1cc2c(cc1C#N)C(Nc1ccc(C(=O)OC(C)(C)C)cc1)CC2 (centres undefined)
2,120 to 122,CCCN(Cc1ccc(-c2ccccc2-c2nnn[nH]2)cc1)c1nc(C)nnc1C(=O)OCC
3,143 to 144,Nc1cccc(Cn2c(-c3ccccc3)ccc2-c2ccccc2)n1
4,276 to 280,CC(C)(C)c1cc(-c2n[nH]c(=O)[nH]2)cc(C(C)(C)C)c1O
5,287 to 288,CC(C)(COC(=O)c1ccc(C(=O)O)cc1)COC(=O)c1ccc(C(=O)O)cc1
6,147 to 150,CC(C)(C)OC(=O)Nc1cc(=O)c2cc(Oc3ccccc3)c(NS(C)(=O)=O)cc2o1
7,126,CCCCN(C=NC1=C(C(=O)OCC)C(c2ccccc2Cl)C(C(=O)OCC)=C(C)N1)CCCC (centres undefined)
8,106 to 108,COc1cccc(Cn2c(=O)c3c(Cl)cc(Cl)cc3n(Cc3ccccc3)c2=O)c1
9,148 to 149,O=C(NCCO[N+](=O)[O-])c1cnc(-c2ccccc2)s1
10,118,COc1ccc2c(c1OCc1ccccc1)CCN(C=O)C2
11,46 to 48,O=C1NC(=O)C(Nc2ccc(CCNCC(O)c3cccnc3)cc2)S1 (centres undefined)
12,167 to 169,O=C(O)[C@H](Cc1ccccc1)NS(=O)(=O)c1ccc(N2CCC(c3ccccc3)CC2)cc1
13,206 to 207,NC(=O)c1cc(-c2ccc(F)cc2)ccc1O
14,76 to 77,Cc1cc(Oc2cccc(C(F)(F)F)c2)nn1C(N)=O
15,202,CCC1CC(=O)N(CCc2ccc(NC(=O)c3cnccn3)cc2)N=C1c1ccc(OC)c(OC)c1 (centres undefined)
16,138 to 140,CN(C)S(=O)(=O)c1cc([N+](=O)[O-])ccc1Cl
17,98 to 100,CC(C(=O)O)c1cccc(N)c1 (centres undefined)
18,90 to 92,CCC1=C(C(=O)Nc2ccc(Cl)c(C(=O)OC(C)C)c2)SCCO1
19,284 to 288,CCc1cc(Cl)cc2[nH]c(=O)c(-c3ccccc3)c(O)c12
20,167 to 169,COc1ccc(F)c(C(N)=O)c1F
21,250 to 252,CC(=O)Nc1ccc(C2=NNC(=O)NC2C)cc1Cl (centres undefined)
22,162 to 165,CC(C)Cn1c(=O)n(C)c(=O)c2c(SCCCC(N)=O)n(Cc3cccc4ccccc34)cc21
23,265 to 267,CC1CC(=O)NN=C1c1ccc(NC2=NCCN2)c(Br)c1 (centres undefined)
24,198 to 200,CCOC(=O)c1cn(C)c2c(OCC)csc2c1=O
25,146 to 148,Cc1cccc(C2COc3cc(O)c(O)cc3C2)c1 (centres undefined)

row,melting point [°C],Compound
1,101 to 105,Cc1cn2cccc(C=Cc3ccccc3)c2n1
2,246,CCCC(=O)Nc1n[nH]c2cc(-c3ccc(C(C)(C)C)cc3)ccc12
3,88 to 90,CN1CN(C)C(=O)N(C)C1=O
4,150 to 152,CC(C)(O)[C@H](CO)NC(=O)[C@@H](CC(=O)O)n1ccc(-c2ccc(-c3ccccc3)cc2)c1
5,162 to 163,CC(C)C(=C(c1ccccc1)c1ccccc1)P(C1CCCCC1)C1CCCCC1
6,144 to 148,CC(C)c1cc(C(C)C)c(C=CC(=O)c2ccc(C(C)C)c(OS(N)(=O)=O)c2C(C)C)c(C(C)C)c1
7,218,O=C1CCC(c2ccccc2)(c2ccccc2)[C@@H]2CN(C(=O)Cc3c(F)cccc3F)C[C@H]12 (racemic)
8,30,COC1=C(OC)C(=O)C(CCCCCCCCCOC(C)=O)=C(C)C1=O
9,213,CS(=O)(=O)N1CCN([C@@H](CNC(=O)c2ccc(OCc3ccncc3)cc2)C(=O)NO)CC1
10,152 to 154,CN(C)C(=S)SC(c1ccc(Cl)cc1Cl)C(C(c1ccc(Cl)cc1Cl)N(C)C)[N+](=O)[O-] (centres undefined)
11,151,CNC(=S)C1(c2cccc(C)n2)CCCO1 (centres undefined)
12,95,O=C(c1cccs1)c1cnn2c(-c3cccc(-c4nnn(Cc5cccnc5)n4)c3)ccnc12
13,254 to 258,O=c1[nH]c2ccc(C3=NOC(CCN4CCC(Cc5ccc(F)cc5)CC4)C3)cc2o1 (centres undefined)
14,280 to 282,Oc1ccc2cc(-c3noc4cc(O)ccc34)ccc2c1
15,190 to 192,O=C(O)c1cc(Cl)cc(Cl)c1[N+](=O)[O-]
16,110 to 112,COC(=O)c1ccc(CNC(=O)C[C@H]2O[C@H](c3cccc(OC)c3OC)c3cc(Cl)ccc3N(CC(C)(C)CO)C2=O)cc1
17,> 120,CCCCc1nc(C(O)CC)c(C(N)=O)n1Cc1ccc(-c2ccccc2C(=O)O)cc1 (centres undefined)
18,186,CC(=O)Nc1ccc(OC(=O)CCl)cc1
19,71 to 72,O=C(OC1CCN(Cc2ccccc2)CC1)c1ccc(Br)cc1
20,128 to 129,CC1(C)Oc2cc(N)c([N+](=O)[O-])cc2O1
21,75,CC(C)(C)c1ccc(S(=O)(=O)N2c3ccccc3C[C@H]2C(=O)NCc2ccc(OCCC(=O)O)cc2)cc1
22,184 to 189,CC(C)C(C)(C(N)=O)N1C(=O)c2ccc3ccn(C)c3c2C1=O (centres undefined)
23,249 to 251,O=C(O)c1csc2c(=O)cc(C(F)(F)F)oc12

row,Compound,melting point [°C]
1,Cc1nnc2n1-c1ccc(I)cc1C(c1ccccc1Cl)=NC2,290 to 292
